The text below walks through data of article PMC8689651, “Chemical Mapping Exposes the Importance of Active Site Interactions in Governing the Temperature Dependence of Enzyme Turnover” (ACS Catalysis, 2021).

In this assay the target is T1, ssGDH (glucose dehydrogenase from Sulfolobus solfataricus) (Saccharolobus solfataricus, UniProt O93715).
T1 construct: gene gdh; full-length, recombinant from pET3a, heat step (70 °C), anion exchange and gel filtration, no tag mentioned; homotetramer; five Trp per monomer
T1 sequence (O93715 whole entry): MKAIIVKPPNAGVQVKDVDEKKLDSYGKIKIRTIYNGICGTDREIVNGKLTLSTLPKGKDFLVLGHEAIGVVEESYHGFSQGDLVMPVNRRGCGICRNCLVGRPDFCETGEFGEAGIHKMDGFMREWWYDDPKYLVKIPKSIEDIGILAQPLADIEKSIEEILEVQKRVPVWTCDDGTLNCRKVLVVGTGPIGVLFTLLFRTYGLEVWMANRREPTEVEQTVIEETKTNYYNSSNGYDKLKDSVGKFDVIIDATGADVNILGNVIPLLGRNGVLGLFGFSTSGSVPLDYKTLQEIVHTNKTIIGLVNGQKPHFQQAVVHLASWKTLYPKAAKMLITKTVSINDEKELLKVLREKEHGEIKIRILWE
The assay is described as follows: steady-state NADPH formation at […] nm. In kind it is biochemical. As to conditions: apparent substrate inhibition; co-substrate NADP+; 100 mM HEPES pH 8; temperature not stated with the value.

On to `OC[C@@H]1C[C@H](O)[C@@H](O)C(O)O1` (stereo partly drawn) [4-deoxy, 4-deoxy-D-glucose], for which the Ki was 29.5 ± 8.7 mM.
